Source: publication PMC10893631, “Receptor-based pharmacophore modeling, molecular docking, synthesis and biological evaluation of novel VEGFR-2, FGFR-1, and BRAF multi-kinase inhibitors” (BMC Chemistry, 2024)

What was measured:
Assay in all cases: NCI SRB growth inhibition (single dose 10 µM / five-dose)
Assay type in all cases: cell-based, human
MALME-3 M = conditions: Homo sapiens; for inhibition at 10 µM: MALME-3 M (Melanoma), read-out: GI%; for GI50: MALME-3 M, Melanoma, five-dose
Outline: (§1)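 TCA fixation ends the assay for adherent lines; unbound SRB is rinsed off five times with 1% acetic acid. Drug is added from a DMSO concentrate at 400× the maximum final concentration, made up to 2× in gentamicin-containing medium, then halved on addition to wells.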

HS 578 T = conditions: Homo sapiens; for inhibition at 10 µM: HS 578 T (Breast cancer), read-out: GI%; for GI50: HS 578 T, Breast cancer, five-dose
Outline: as §1

SK-MEL-28 = conditions: Homo sapiens; for inhibition at 10 µM: SK-MEL-28 (Melanoma), read-out: GI%; for GI50: SK-MEL-28, Melanoma, five-dose
Outline: as §1

SK-MEL-5 = conditions: Homo sapiens; for inhibition at 10 µM: SK-MEL-5 (Melanoma), read-out: GI%; for GI50: SK-MEL-5, Melanoma, five-dose
Outline: as §1

TK-10 = conditions: Homo sapiens; for inhibition at 10 µM: TK-10 (Renal cancer), read-out: GI%; for GI50: TK-10, Renal cancer, five-dose
Outline: as §1

CCRF-CEM = conditions: Homo sapiens; for inhibition at 10 µM: CCRF-CEM (Leukemia), read-out: GI%; for GI50: CCRF-CEM, Leukemia, five-dose
Outline: as §1

OVCAR-5 = conditions: Homo sapiens; for inhibition at 10 µM: OVCAR-5 (Ovarian cancer), read-out: GI%; for GI50: OVCAR-5, Ovarian cancer, five-dose
Outline: as §1

BT-549 = conditions: Homo sapiens; for inhibition at 10 µM: BT-549 (Breast cancer), read-out: GI%; for GI50: BT-549, Breast cancer, five-dose
Outline: as §1

SR = conditions: Homo sapiens; for inhibition at 10 µM: SR (Leukemia), read-out: GI%; for GI50: SR, Leukemia, five-dose
Outline: as §1

M14 = conditions: Homo sapiens; for inhibition at 10 µM: M14 (Melanoma), read-out: GI%; for GI50: M14, Melanoma, five-dose
Outline: as §1

786–0 = conditions: Homo sapiens; for inhibition at 10 µM: 786–0 (Renal cancer), read-out: GI%; for GI50: 786–0, Renal cancer, five-dose
Outline: as §1

SK-MEL-2 = conditions: Homo sapiens; for inhibition at 10 µM: SK-MEL-2 (Melanoma), read-out: GI%
Outline: as §1

MOLT-4 = conditions: Homo sapiens; for inhibition at 10 µM: MOLT-4 (Leukemia), read-out: GI%; for GI50: MOLT-4, Leukemia, five-dose
Outline: as §1

EKVX = conditions: Homo sapiens; for inhibition at 10 µM: EKVX (Non-small cell lung cancer), read-out: GI%; for GI50: EKVX, Non-small cell lung cancer, five-dose
Outline: as §1

HT29 = conditions: Homo sapiens, HT-29; for inhibition at 10 µM: HT29 (Colon cancer), read-out: GI%; for GI50: HT29, Colon cancer, five-dose
Outline: as §1

MDA-MB-231/ATCC = conditions: Homo sapiens; for inhibition at 10 µM: MDA-MB-231/ATCC (Breast cancer), read-out: GI%; for GI50: MDA-MB-231/ATCC, Breast cancer, five-dose
Outline: as §1

NCI/ADR-RES = conditions: Homo sapiens; for inhibition at 10 µM: NCI/ADR-RES (Ovarian cancer), read-out: GI%; for GI50: NCI/ADR-RES, Ovarian cancer, five-dose
Outline: as §1

SF-295 = conditions: Homo sapiens; for inhibition at 10 µM: SF-295 (CNS cancer), read-out: GI%; for GI50: SF-295, CNS cancer, five-dose
Outline: as §1

CAKI-1 = conditions: Homo sapiens; for inhibition at 10 µM: CAKI-1 (Renal cancer), read-out: GI%; for GI50: CAKI-1, Renal cancer, five-dose
Outline: as §1

HOP-92 = conditions: Homo sapiens; for inhibition at 10 µM: HOP-92 (Non-small cell lung cancer), read-out: GI%
Outline: as §1

A549/ATCC = conditions: Homo sapiens; for inhibition at 10 µM: A549/ATCC (Non-small cell lung cancer), read-out: GI%; for GI50: A549/ATCC, Non-small cell lung cancer, five-dose
Outline: as §1

HCC-2998 = conditions: Homo sapiens; for inhibition at 10 µM: HCC-2998 (Colon cancer), read-out: GI%; for GI50: HCC-2998, Colon cancer, five-dose
Outline: as §1

RXF 393 = conditions: Homo sapiens; for inhibition at 10 µM: RXF 393 (Renal cancer), read-out: GI%; for GI50: RXF 393, Renal cancer, five-dose
Outline: as §1

ACHN = conditions: Homo sapiens; for inhibition at 10 µM: ACHN (Renal cancer), read-out: GI%; for GI50: ACHN, Renal cancer, five-dose
Outline: as §1

NCI-H226 = conditions: Homo sapiens; for inhibition at 10 µM: NCI-H226 (Non-small cell lung cancer), read-out: GI%; for GI50: NCI-H226, Non-small cell lung cancer, five-dose
Outline: as §1

UACC-257 = conditions: Homo sapiens; for inhibition at 10 µM: UACC-257 (Melanoma), read-out: GI%; for GI50: UACC-257, Melanoma, five-dose
Outline: as §1

COc1cccc(C=NNC(=O)c2ccc3[nH]c(-c4ccc(Cl)cc4)nc3c2)c1 [8q, 2-(4-Chlorophenyl)-N'-(3-methoxybenzylidene)-1H-benzo[d]imidazole-5-carbohydrazide]
inhibition at 10 µM (MALME-3 M): > 100% | GI50 (MALME-3 M): 1540 nM | inhibition at 10 µM (HS 578 T): > 100% | GI50 (HS 578 T): 2710 nM | inhibition at 10 µM (SK-MEL-28): > 100% | GI50 (SK-MEL-28): 2150 nM | inhibition at 10 µM (SK-MEL-5): > 100% | GI50 (SK-MEL-5): 4900 nM | inhibition at 10 µM (TK-10): > 100% | GI50 (TK-10): 23900 nM | inhibition at 10 µM (CCRF-CEM): 47% | GI50 (CCRF-CEM): 1950 nM | inhibition at 10 µM (OVCAR-5): > 100% | GI50 (OVCAR-5): 5350 nM | inhibition at 10 µM (BT-549): 6.97% | GI50 (BT-549): 10100 nM | inhibition at 10 µM (SR): > 100% | GI50 (SR): 4150 nM | inhibition at 10 µM (M14): > 100% | GI50 (M14): 2150 nM | inhibition at 10 µM (786–0): > 100% | GI50 (786–0): 1850 nM | inhibition at 10 µM (SK-MEL-2): > 100% | GI50 (SK-MEL-2; SK-MEL-2, Melanoma, five-dose): 3070 nM | inhibition at 10 µM (MOLT-4): 71.6% | GI50 (MOLT-4): 5960 nM | inhibition at 10 µM (EKVX): > 100% | GI50 (EKVX): 3520 nM | inhibition at 10 µM (HT29): > 100% | GI50 (HT29): 2380 nM | inhibition at 10 µM (MDA-MB-231/ATCC): > 100% | GI50 (MDA-MB-231/ATCC): 1890 nM | inhibition at 10 µM (NCI/ADR-RES): 23% | GI50 (NCI/ADR-RES): 94800 nM | inhibition at 10 µM (SF-295): > 100% | GI50 (SF-295): 2170 nM | inhibition at 10 µM (CAKI-1): > 100% | GI50 (CAKI-1): 3840 nM | inhibition at 10 µM (HOP-92): > 100% | inhibition at 10 µM (A549/ATCC): > 100% | GI50 (A549/ATCC): 3220 nM | inhibition at 10 µM (HCC-2998): 79.6% | GI50 (HCC-2998): 4420 nM | inhibition at 10 µM (RXF 393): > 100% | GI50 (RXF 393): 2060 nM | inhibition at 10 µM (ACHN): > 100% | GI50 (ACHN): 4210 nM | inhibition at 10 µM (NCI-H226): > 100% | GI50 (NCI-H226): 2570 nM | inhibition at 10 µM (UACC-257): > 100% | GI50 (UACC-257): 4800 nM

COc1cccc(C=NNC(=O)c2ccc3[nH]c(-c4ccc(Cl)cc4)nc3c2)c1O [8r, 2-(4-Chlorophenyl)-N'-(2-hydroxy-3-methoxybenzylidene)-1H-benzo[d]imidazole-5-carbohydrazide]
inhibition at 10 µM (MALME-3 M): > 100% | GI50 (MALME-3 M): 1360 nM | inhibition at 10 µM (HS 578 T): > 100% | GI50 (HS 578 T): 700 nM | inhibition at 10 µM (SK-MEL-28): > 100% | GI50 (SK-MEL-28): 1620 nM | inhibition at 10 µM (SK-MEL-5): > 100% | GI50 (SK-MEL-5): 1340 nM | inhibition at 10 µM (TK-10): > 100% | GI50 (TK-10): 6460 nM | inhibition at 10 µM (CCRF-CEM): > 100% | GI50 (CCRF-CEM): 430 nM | inhibition at 10 µM (OVCAR-5): > 100% | GI50 (OVCAR-5): 2170 nM | inhibition at 10 µM (BT-549): > 100% | GI50 (BT-549): 1360 nM | inhibition at 10 µM (SR): > 100% | GI50 (SR): 500 nM | inhibition at 10 µM (M14): > 100% | GI50 (M14): 2070 nM | inhibition at 10 µM (786–0): > 100% | GI50 (786–0): 1490 nM | inhibition at 10 µM (SK-MEL-2): > 100% | inhibition at 10 µM (MOLT-4): > 100% | GI50 (MOLT-4): 630 nM | inhibition at 10 µM (EKVX): > 100% | GI50 (EKVX): 4560 nM | inhibition at 10 µM (HT29): > 100% | GI50 (HT29): 4170 nM | inhibition at 10 µM (MDA-MB-231/ATCC): > 100% | GI50 (MDA-MB-231/ATCC): 1820 nM | inhibition at 10 µM (NCI/ADR-RES): 49.3% | GI50 (NCI/ADR-RES): > 100000 nM | inhibition at 10 µM (SF-295): > 100% | GI50 (SF-295): 2200 nM | inhibition at 10 µM (CAKI-1): > 100% | GI50 (CAKI-1): 2310 nM | inhibition at 10 µM (HOP-92): > 100% | GI50 (HOP-92; HOP-92, Non-small cell lung cancer, five-dose): 1250 nM | inhibition at 10 µM (A549/ATCC): > 100% | GI50 (A549/ATCC): 3680 nM | inhibition at 10 µM (HCC-2998): > 100% | GI50 (HCC-2998): 1480 nM | inhibition at 10 µM (RXF 393): > 100% | GI50 (RXF 393): 1410 nM | inhibition at 10 µM (ACHN): > 100% | GI50 (ACHN): 2920 nM | inhibition at 10 µM (NCI-H226): > 100% | GI50 (NCI-H226): 1650 nM | inhibition at 10 µM (UACC-257): > 100% | GI50 (UACC-257): 2350 nM
